The results in this text go back to patent publication US9745328B2, “Flap modulators” (JANSSEN PHARMACEUTICA NV, priority 2013, dated 2017).

The structures appear in SMILES notation. Counter-ions that a name gives are not always drawn. Like-named read-outs stand apart in the source and are kept apart here. A value given as a limit tells only on which side of the number the result lay.

Assay [1] has as its system leukotriene pathway in human whole blood (LTB4). Briefly: Human whole blood assay (LTB4 levels after calcium ionophore A23187 stimulation). Type of assay: cell-based. To be noted: read-out: Human Whole Blood LTB4 IC50 1:1. As for the experimental part: The ability of the compounds of the present invention to treat a FLAP-mediated disease and/or disorder, or associated symptoms or complications thereof, was determined using the following procedures. Binding assay data represent the average value obtained from two different assay plates, with samples run in duplicate on each plate. Human whole blood assay data represent a single replicate on an assay plate using whole blood from at least one healthy donor.
An in vitro cellular assay was performed using human whole blood collected in heparin-containing tubes, which was used to test the ability of compounds to modulate the leukotriene pathway in human whole blood. The blood was diluted 1:1 in RPMI medium, pre-incubated for 15 min at 37° Celsius with test compounds at various concentrations, and then stimulated with calcium ionophore, A23187 (7 μg/mL), for 30 min at 37° Celsius. The samples were then centrifuged and plasma was removed. The plasma was diluted in assay buffer and LTB4 levels were measured using a commercial kit (Enzo Life Sciences). The concentration of each compound that was required for half-maximal inhibition (modulation) of recombinant enzyme activity (IC50) was calculated by a 4-parameter equation using the program GraphPad Prism (GraphPad software).

The next assay addresses human FLAP (Homo sapiens (Human), UniProt P20292). Kind of assay: FLAP binding assay (HTRF format). The procedure, abridged:
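Binding of compounds to FLAP read out as HTRF ratio. Values are the mean of two assay plates, each sample run in duplicate per plate.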

[2] abbreviates: Homo sapiens, human whole blood diluted 1:1, A23187 stimulation, Table 6 (additional runs).
Where [3] appears, read: human FLAP wild type, Table 6 (additional runs).
The mark [4] stands for this setting: Homo sapiens, Table 6 (additional runs), human whole blood diluted 1:1, A23187 stimulation.
[5] abbreviates: Table 6 (additional runs), human FLAP wild type.

Chain of human FLAP (P20292 whole entry): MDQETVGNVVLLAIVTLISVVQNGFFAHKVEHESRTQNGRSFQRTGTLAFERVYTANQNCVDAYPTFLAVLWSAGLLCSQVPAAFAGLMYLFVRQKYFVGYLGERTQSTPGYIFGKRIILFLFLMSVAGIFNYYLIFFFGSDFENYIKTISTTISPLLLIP

As to `Nc1ncc(-c2ccc(-c3cccnc3Oc3ccccc3)cc2F)cn1` [Example 895, 5-[2-Fluoro-4-(2-phenoxypyridin-3-yl)phenyl]pyrimidin-2-amine], in assay [1] (setting [2]), the IC50 is 222 nM. The Ki on human FLAP (setting [3]) is 13.2 nM. In the same order, the values of `Nc1ncc(-c2ccc(-c3ccccc3-c3ccnc(N)n3)cc2F)cn1` [Example 867, 4-[4′-(2-Aminopyrimidin-5-yl)-3′-fluorobiphenyl-2-yl]pyrimidin-2-amine] are 793 nM and 246 nM. Take `Nc1cnc(-c2ccc(-c3ccccc3S(=O)(=O)C3CCC3)cc2F)cn1` [Example 196, 5-[2′-(Cyclobutylsulfonyl)-3-fluorobiphenyl-4-yl]pyrazin-2-amine]: in assay [1] (setting [4]), the 50% inhibitory concentration (IC50) came out at 96.3 nM. This compound gave a Ki at human FLAP (setting [5]) of 7.8 nM. As for `Nc1cnc(-c2ccc(-c3ccccc3Oc3ccc(C(=O)O)cc3)cc2F)cn1` [Example 888, 4-{[4′-(5-Aminopyrazin-2-yl)-3′-fluorobiphenyl-2-yl]oxy}benzoic acid], the 50% inhibitory concentration (IC50) in assay [1] (setting [2]) amounted to 367 nM. Further, at human FLAP (setting [3]), the Ki was found to be 0.7 nM. Regarding `Nc1cnc(-c2ccc(-c3cccnc3Oc3ccccc3)cc2F)cn1` [Example 894, 5-[2-Fluoro-4-(2-phenoxypyridin-3-yl)phenyl]pyrazin-2-amine], in assay [1] (setting [2]), the IC50 turned out to be 141 nM. At human FLAP (setting [3]), this compound returned an inhibitory constant (Ki) of 3.8 nM.

On to `Nc1cnc(-c2ccc(-c3cccnc3Oc3cccnc3)cc2F)cn1` [Example 896, 5-{2-Fluoro-4-[2-(pyridin-3-yloxy)pyridin-3-yl]phenyl}pyrazin-2-amine], for which the IC50 in assay [1] (setting [2]) came out at 466 nM. In addition, the Ki on human FLAP (setting [3]) is 22.1 nM. With `Nc1cnc(-c2ccc(-c3ccccc3OCC3CCS(=O)(=O)CC3)cc2F)cn1` [Example 884, 5-{2′-[(1,1-Dioxidotetrahydro-2H-thiopyran-4-yl)methoxy]-3-fluorobiphenyl-4-yl}pyrazin-2-amine], in assay [1] (setting [2]), the half-inhibitory concentration (IC50) was 706 nM. On human FLAP (setting [3]), this compound came in with an inhibitory constant (Ki) of 239 nM. On to `Nc1cnc(-c2ccc(-c3ccccc3S(=O)(=O)N3CCC(CO)CC3)cc2F)cn1` [Example 68, (1-{[4′-(5-Aminopyrazin-2-yl)-3′-fluorobiphenyl-2-yl]sulfonyl}piperidin-4-yl)methanol], for which, in assay [1] (setting [4]), the IC50 was 10.9 nM. For the same compound, the Ki at human FLAP (setting [5]) came out at 1.1 nM. Regarding `NCCn1cc(-c2ccccc2-c2ccc(-c3cnc(N)cn3)c(F)c2)cn1` [Example 864, 5-{2′-[1-(2-Aminoethyl)-1H-pyrazol-4-yl]-3-fluorobiphenyl-4-yl]pyrazin-2-amine], the IC50 in assay [1] (setting [2]) came to 413 nM. Further, the Ki at human FLAP (setting [3]) stood at 216 nM. Regarding `Nc1cnc(-c2ccc(-c3ccccc3S(=O)(=O)N3CCNCC3)cc2F)cn1` [Example 46, 5-[3-Fluoro-2′-(piperazin-1-ylsulfonyl)biphenyl-4-yl]pyrazin-2-amine], the IC50 in assay [1] (setting [4]) was 177 nM. Further, the Ki at human FLAP (setting [5]) is 61.5 nM.

On to `Nc1ncc(-c2ccc(-c3ccc(C(F)(F)F)cc3C(=O)N3CCOCC3)cc2F)cn1` [Example 522, 5-[3-Fluoro-2′-(morpholin-4-ylcarbonyl)-4′-(trifluoromethyl)biphenyl-4-yl]pyrimidin-2-amine], for which the 50% inhibitory concentration (IC50) in assay [1] (setting [2]) worked out at 264 nM. Also, the affinity at human FLAP (setting [3]), expressed as Ki, was 286 nM. With `Nc1ncc(-c2ccc(-c3cccnc3S(=O)(=O)C3CCOCC3)cc2F)cn1` [Example 831, 5-{2-Fluoro-4-[2-(tetrahydro-2H-pyran-4-ylsulfonyl)pyridin-3-yl]phenyl}pyrimidin-2-amine formic acid salt], the half-inhibitory concentration (IC50) in assay [1] (setting [2]) was 72.5 nM. This compound had a Ki on human FLAP (setting [3]) of 149 nM.

As to `Nc1ncc(-c2ccc(-c3ccccc3Oc3ccc(C(=O)O)cc3)cc2F)cn1` [Example 889, 4-{[4′-(2-Aminopyrimidin-5-yl)-3′-fluorobiphenyl-2-yl]oxy}benzoic acid], in assay [1] (setting [2]), the half-maximal inhibitory concentration (IC50) turned out to be 236 nM. Moreover, on human FLAP (setting [3]), the affinity corresponds to a Ki of 3.9 nM. In the same order, the values of `CCNS(=O)(=O)c1cc(C(F)(F)F)ccc1-c1cnc(-c2cnc(N)nc2)c(F)c1` [Example 674, 2-[6-(2-Aminopyrimidin-5-yl)-5-fluoropyridin-3-yl]-N-ethyl-5-(trifluoromethyl)benzenesulfonamide] are 13.3 nM and 3.6 nM. Take `Nc1cnc(-c2ccc(-c3ccccc3S(=O)(=O)N3CCCCC3)cc2F)cn1` [Example 43, 5-[3-fluoro-2′-(piperidin-1-ylsulfonyl)biphenyl-4-yl]pyrazin-2-amine]: the concentration for half-maximal inhibition (IC50) in assay [1] (setting [4]) was determined as 38.1 nM. Moreover, on human FLAP (setting [5]), affinity was put at a Ki of 3 nM.

As to `Nc1ncc(-c2ccc(-c3cccnc3S(=O)(=O)c3ccccc3)cc2F)cn1` [Example 898, 5-{2-Fluoro-4-[2-(phenylsulfonyl)pyridin-3-yl]phenyl}pyrimidin-2-amine], the IC50 in assay [1] (setting [2]) was 928 nM. Also, the affinity at human FLAP (setting [3]) corresponds to a Ki of 79.7 nM.

Regarding `C[C@H](CO)NS(=O)(=O)c1ccccc1-c1cnc(-c2cnc(N)nc2)c(F)c1` [Example 881, 2-[6-(2-Aminopyrimidin-5-yl)-5-fluoropyridin-a-yl]-N-[(1R)-2-hydroxy-1-methylethyl]benzenesulfonamide], in assay [1] (setting [2]), the concentration for half-maximal inhibition (IC50) came to 128 nM. In addition, at human FLAP (setting [3]), affinity was put at a Ki of 76 nM. In the same order, the values of `CS(=O)(=O)N1CCC(S(=O)(=O)c2ncccc2-c2ccc(-c3cnc(N)cn3)c(F)c2)CC1` [Example 908, 5-[2-Fluoro-4-(2-{[1-(methylsulfonyl)piperidin-4-yl]sulfonyl}pyridin-3-yl)phenyl]pyrazin-2-amine] are 43.7 nM and 26.6 nM. Take `CNc1ncc(-c2ccccc2-c2ccc(-c3cnc(N)cn3)c(F)c2)cn1` [Example 872, 5-[4′-(5-Aminopyrazin-2-yl)-3′-fluorobiphenyl-2-yl]-N-methylpyrimidin-2-amine]: the half-inhibitory concentration (IC50) in assay [1] (setting [2]) is 53 nM. On human FLAP (setting [3]), this compound came in with a Ki of 8.3 nM.

`Nc1cnc(-c2ccc(-c3ccccc3OC3CCS(=O)(=O)CC3)cc2F)cn1` [Example 885, 5-{2′-[(1,1-Dioxidotetrahydro-2H-thiopyran-4-yl)oxy]-3-fluorobiphenyl-4-yl}pyrazin-2-amine]: the half-inhibitory concentration (IC50) in assay [1] (setting [2]) is 1060 nM. The compound also returned a Ki on human FLAP (setting [3]) of 40.8 nM. Take `CC(C)c1ccccc1-c1ccc(-c2cnc(N)cn2)c(F)c1` [Example 482, 5-[3-Fluoro-2′-(1-methylethyl)biphenyl-4-yl]pyrazin-2-amine]: the IC50 in assay [1] (setting [2]) stood at 320 nM. Moreover, the Ki on human FLAP (setting [3]) is 60.9 nM.

`Nc1cnc(-c2ccc(-c3ccccc3O)cc2F)cn1` [Example 476, 4′-(5-aminopyrazin-2-yl)-5′-fluorobiphenyl-2-ol]: in assay [1] (setting [2]), the half-inhibitory concentration (IC50) came to 350 nM. Besides, affinity on human FLAP (setting [3]) was put at a Ki of 24.1 nM. `Nc1cnc(-c2ccc(-c3ccccc3-c3cnc(N4CCNCC4)nc3)cc2F)cn1` [Example 862, 5-[3-Fluoro-2′-(2-piperazin-1-ylpyrimidin-5-yl)biphenyl-4-yl]pyrazin-2-amine]: in assay [1] (setting [2]), the IC50 is 121 nM. The same compound came in with an inhibition constant (Ki) at human FLAP (setting [3]) of 122 nM. Consider `Nc1ncc(-c2ccc(-c3ccccc3OCc3ccc(C(=O)O)cc3)cc2F)cn1` [Example 887, 4-({[4′-(2-Aminopyrimidin-5-yl)-3′-fluorobiphenyl-2-yl]oxy}methyl)benzoic acid], for which the concentration for half-maximal inhibition (IC50) in assay [1] (setting [2]) was more than 1000 nM. The compound further registered a Ki at human FLAP (setting [3]) of 30.4 nM. For the compound `C[C@@H](NS(=O)(=O)c1ccccc1-c1ccc(-c2cnc(N)cn2)c(F)c1)C(F)(F)F` [Example 20, (S)-4′-(5-Aminopyrazin-2-yl)-3′-fluoro-N-[(S)-2,2,2-trifluoro-1-methylethyl]biphenyl-2-sulfonamide], the half-inhibitory concentration (IC50) in assay [1] (Table 6 (additional runs), human whole blood diluted 1:1, A23187 stimulation) was found to be 8.5 nM. The compound further returned an inhibitory constant (Ki) on human FLAP (setting [5]) of 0.9 nM. As for `Nc1cnc(-c2ccc(-c3ccccc3C(=O)N3CCS(=O)(=O)CC3)cc2F)cn1` [Example 509, 5-{2′-[(1,1-Dioxidathiomorpholin-4-yl)carbonyl]-3-fluorobiphenyl-4-yl}pyrazin-2-amine], the half-inhibitory concentration (IC50) in assay [1] (setting [2]) turned out to be 160 nM. Consider `C[C@@H](CO)NS(=O)(=O)c1ccccc1-c1ccc(-c2cnc(N)cn2)c(F)c1` [Example 25, (R)-4′-(5-Aminopyrazin-2-yl)-3′-fluoro-N-[(1R)-2-hydroxy-1-methylethyl]piphenyl-2-sulfonamicie], for which the half-inhibitory concentration (IC50) in assay [1] (setting [4]) stood at 26.3 nM. Take `Nc1ccnc(Oc2ccccc2-c2ccc(-c3cnc(N)nc3)c(F)c2)n1` [Example 529]: in assay [1] (setting [2]), the 50% inhibitory concentration (IC50) came out at 79.6 nM. `C[C@H](O)CNS(=O)(=O)c1ccccc1-c1ccc(-c2cnc(N)nc2)c(F)c1` [Example 279, 4′-(2-Aminopyrimidin-5-yl)-3′-fluoro-N-[(2S)-2-hydroxypropyl]biphenyl-2-sulfonamide trifluoroacetic acid salt]: in assay [1] (setting [4]), the IC50 was 118 nM. For `C[C@@H](CO)NS(=O)(=O)c1ccccc1-c1ccc(-c2ccc(N)nc2)c(F)c1` [Example 347, (S)-4′-(6-aminopyridin-3-yl)-3′-fluoro-N-(1-hydroxypropan-2-yl)-[1,1′-biphenyl]-2-sulfonamide], the 50% inhibitory concentration (IC50) in assay [1] (setting [4]) is 161 nM; in assay [1] (Homo sapiens, human whole blood diluted 1:1 in RPMI, A23187 stimulation, LTB4), 161 nM. For the compound `Nc1cnc(-c2ccc(-c3ccccc3S(=O)(=O)N3CC[C@@H](N)C3)cc2F)cn1` [Example 92, (R)-5-(2′-((3-aminopyrrolidin-1-yl)sulfonyl)-3-fluoro-[1,1′-biphenyl]-4-yl)pyrazin-2-amine], in assay [1] (setting [4]), the IC50 was found to be 309 nM.
